In US20090054500A1, “Composition and methods useful in preventing cardiac hypertrophy” (The Brigham and Women's Hospital, Inc., priority 2005, published 2009):
“And” between values parts separate entries of the source, which are not always exact repeats. Equal entries are not always repeated. Where two headings read alike, the source gives them in different places.

How the values were obtained:
VEGF = details: Peterson, et al., Nat. Biotechnol. 22:595 (2004); cited from earlier work
cardiomyocytes = cardiomyocytes in vitro
[1] = test system: gridlock phenotype associated with mutations in the CHF1 gene in zebrafish; details: Peterson, et al., Nat. Biotechnol. 22:595-599 (2004); cited from earlier work
mouse cardiomyoctes = test system: mouse cardiomyoctes
Experimental: Cell hypertrophy was determined by the incorporation of ^3H-leucine.

COc1ccc(SCCc2ccncc2)cc1.Cl [GS4012, 4-(2-(4-Methoxyphenylsulfanyl)ethyl)pyridine, HCl]
VEGF and VEGF-mediated vessel formation (VEGF): induces
effect on phenylephrine-induced hypertrophy (cardiomyocytes): prevent phenylephrine-induced hypertrophy
effect on gridlock phenotype [1]: suppresses the gridlock phenotype
incorporation of 3H-leucine (cell hypertrophy), mean (mouse cardiomyoctes; Table 2, GS4012 + FCS, mean of 12 tests): 340.5825 counts per minute
incorporation of 3H-leucine (cell hypertrophy), mean (mouse cardiomyoctes; Table 2, GS4012, no FCS, mean of 12 tests): 397.6667 counts per minute
incorporation of 3H-leucine (cell hypertrophy), mean (mouse cardiomyoctes; Table 3, WT, GS4012 2.5 μg/ml, no FCS, mean of 8 tests, HCl): 329.4 counts per minute and 329.37 counts per minute
incorporation of 3H-leucine (cell hypertrophy), mean (mouse cardiomyoctes; Table 3, WT, GS4012 + FCS, mean of 8 tests, HCl): 419.7925 counts per minute and 419.8 counts per minute
FCS induction of cardiomyocyte proliferation when GS4012 was present (mouse cardiomyoctes; cpm for vehicle+GS4012 compared with vehicle+GS4012+FCS): did not occur
